Results taken from patent publication US20240409536A1, “COMPOUNDS AND METHODS FOR MODULATING SPLICING” (REMIX THERAPEUTICS INC., priority 2021, published 2024).

Legend:
HTT mRNA = experiment: Gene panel canonical junction qPCR assay, HTT CJ mRNA decrease; format: cell-based, human; details: Homo sapiens, canonical junction qPCR, read-out: HTT IC50 (decrease in CJ mRNA levels)
Procedure, shortened: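 A673 or K562 cells were treated with compound, and lysates underwent cDNA synthesis and qPCR with a CY5 5′-nuclease probe or primer spanning the canonical exon junction. ΔCt versus GAPDH, GUSB or PPIA was normalized to DMSO (2^(−ΔΔCt)), converted to percentage response and fitted four-parameter logistic for IC50.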

K562 cells = experiment: Cell Titer Glo 2.0 cell viability assay in K562 cells; details: 72 hours
HiBiT-tagged MYB protein = experiment: HiBiT protein abundance assay, MYB (K562 HiBiT knock-in cells); format: cell-based, human; details: 24 hours
Procedure, shortened: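 Luminescent readout of HiBiT-tagged endogenous protein after lysis, following 24 h compound exposure of knock-in K562 lines at 37 °C. Ten 3-fold concentrations from 10 μM final, DMSO ≤0.25%. Four-parameter logistic fit of normalized response gives concentration halving abundance (IC50).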

Target C = experiment: HiBiT protein abundance assay, Target C (K562 HiBiT knock-in cells); format: cell-based, human; details: 24 hours
Procedure, shortened: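 Protein abundance read by HiBiT lytic luminescence after 24 h compound exposure (37 °C) of knock-in K562 cells, 10000 cells/well in IMDM+1% FBS. Dosing: 10 points, 3-fold, top 10 μM final, ≤0.25% DMSO. Four-parameter logistic fit gave concentration reducing abundance to 50% of untreated control.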

Row | IC50 (HTT mRNA) [µM] | IC50 (HiBiT-tagged MYB protein) [nM] | IC50 (Target C) [µM] | SMILES | Viability (K562 cells)
1 | 0.1 to 1 | < 100 | 1 to 10 | COc1nc2c(N3C[C@@H](C)N[C@@H](C)C3)ccc(C(=O)Nc3cc(F)c4nc(C)cn4c3)c2nc1C [Compound 260, 8-((3R,5S)-3,5-dimethylpiperazin-1-yl)-N-(8-fluoro-2-methylimidazo[1,2-a]pyridin-6-yl)-2-methoxy-3-methylquinoxaline-5-carboxamide; 2,2,2-trifluoroacetate] | C (C represents 1000-9999 nM)
2 | 1 to 10 | 100 to 1000 | > 10 | Cc1cn2cc(NC(=O)c3ccc([C@@]45CCNCC4C5)c4nccnc34)cc(F)c2n1 (stereo in doubt) [Compound 248, 8-{3-azabicyclo[4.1.0]heptan-6-yl}-N-{8-fluoro-2-methylimidazo[1,2-a]pyridin-6-yl}quinoxaline-5-carboxamide 2,2,2-trifluoroacetate] | B (B represents 100-1000 nM)
3 | > 10 | 1000 to 10000 | > 10 | COc1nc(NC(=O)c2ccc(N3C[C@@H](C)N[C@@H](C)C3)c3nccnc23)nc2cn(C)nc12 [Compound 287] | D (D represents greater than 10 μM in K562 cells)
4 | 1 to 10 | 1000 to 10000 | 1 to 10 | Cc1cn2cc(NC(=O)c3ccc(N4CCN[C@@H](CF)C4)c4nccnc34)cc(F)c2n1 [Compound 367] | C (C represents 1000-9999 nM)
5 | 1 to 10 | 100 to 1000 | 1 to 10 | Cc1cn2cc(NC(=O)c3ccc(N4CCN[C@H](CF)C4)c4nccnc34)cc(F)c2n1 [Compound 366] | C (C represents 1000-9999 nM)
6 | > 10 | 1000 to 10000 | > 10 | COc1cn2cc(NC(=O)c3ccc(N4C[C@@H](C)N[C@@H](C)C4)c4nccnc34)cc(F)c2n1 [Compound 357] | C (C represents 1000-9999 nM)
7 | > 10 | > 10000 | > 10 | Cn1cc2ccc(NC(=O)c3ccc(N4CCNCC4)c4ccnnc34)cc2n1 [Compound 115] | D (D represents greater than 10 μM in K562 cells)
8 | 1 to 10 | < 100 | 0.1 to 1 | Cc1cn2cc(NC(=O)c3ccc(N4C[C@@H](C)N[C@@H](C5CC5)C4)c4nccnc34)cc(F)c2n1 [Compound 266, 8-((3S,5R)-3-cyclopropyl-5-methylpiperazin-1-yl)-N-(8-fluoro-2-methylimidazo[1,2-a]pyridin-6-yl)quinoxaline-5-carboxamide] | B (B represents 100-1000 nM)
9 | 1 to 10 | < 100 | 1 to 10 | Cc1cn2cc(NC(=O)c3ccc(N4CCNC(C)(CO)C4)c4nccnc34)cc(F)c2n1 (stereo not shown) [Compound 368] | B (B represents 100-1000 nM)
10 | 1 to 10 | 100 to 1000 | 1 to 10 | Cc1cn2cc(NC(=O)c3ccc(N4C[C@@H](C)N[C@@H](C)C4)c4cncnc34)cc(F)c2n1 [Compound 302] | C (C represents 1000-9999 nM)
11 | 1 to 10 | 1000 to 10000 | 1 to 10 | Cc1cn2cc(NC(=O)c3ccc(N4CC(C)NC(C)C4)c4nc(C)c(C)nc34)cc(F)c2n1 (stereo not shown) [Compound 257] | B (B represents 100-1000 nM)
12 | > 10 | > 10000 | > 10 | C[C@@H]1CN(c2ccc(C(=O)Nc3ccc4nc(N(C)C)oc4c3)c3nccnc23)C[C@H](C)N1 [Compound 290] | D (D represents greater than 10 μM in K562 cells)
13 | 1 to 10 | 100 to 1000 | 1 to 10 | Cc1cn2c(C)c(NC(=O)c3ccc(N4C[C@@H](C)N[C@@H](C)C4)c4nccnc34)cc(F)c2n1 [Compound 285] | C (C represents 1000-9999 nM)
14 | 1 to 10 | < 100 | 1 to 10 | COc1ccc2c(N3C[C@@H](C)N[C@@H](C)C3)ccc(C(=O)Nc3cc(F)c4nc(C)cn4c3)c2n1 [Compound 268, 5-[(3R,5S)-3,5-dimethylpiperazin-1-yl]-N-{8-fluoro-2-methylimidazo[1,2-a]pyridin-6-yl}-2-methoxyquinoline-8-carboxamide] | B (B represents 100-1000 nM)
15 | 1 to 10 | 1000 to 10000 | 1 to 10 | Cc1cn2cc(NC(=O)c3ccc(N4CCC(N)(CF)CC4)c4nccnc34)cc(F)c2n1 [Compound 356] | C (C represents 1000-9999 nM)
16 | > 10 | > 10000 | > 10 | C[C@@H]1CN(c2ccc(C(=O)Nc3cc(F)c4nc(O)cn4c3)c3nccnc23)C[C@H](C)N1 [Compound 360] | D (D represents greater than 10 μM in K562 cells)
17 | 1 to 10 | < 100 | > 10 | Cc1cn2cc(NC(=O)c3ccc(N4C[C@@H](C)N[C@@H](C)C4)c4nccnc34)cc(Cl)c2n1 [Compound 304] | B (B represents 100-1000 nM)
18 | > 10 | 100 to 1000 | > 10 | Cc1cn2cc(NC(=O)c3ccc(N4CC[C@@H](N(C)C)C4)c4nccnc34)cc(F)c2n1 [Compound 242, 8-[(3R)-3-(dimethylamino)pyrrolidin-1-yl]-N-{8-fluoro-2-methylimidazo[1,2-a]pyridin-6-yl}quinoxaline-5-carboxamide] | B (B represents 100-1000 nM)
19 | 1 to 10 | < 100 | 1 to 10 | Cc1cn2cc(NC(=O)c3ccc(N4CCN[C@H](C5CC5)C4)c4nccnc34)cc(F)c2n1 [Compound 253, 8-[(3R)-3-cyclopropylpiperazin-1-yl]-N-{8-fluoro-2-methylimidazo[1,2-a]pyridin-6-yl}quinoxaline-5-carboxamide] | A (A represents <100 nM)
